This assay addresses T1, recombinant human α1D receptor (Homo sapiens, UniProt P25100).
T1 construct: expressed in transfected cells; host or cells: HEK293
T1 sequence (P25100 1-572): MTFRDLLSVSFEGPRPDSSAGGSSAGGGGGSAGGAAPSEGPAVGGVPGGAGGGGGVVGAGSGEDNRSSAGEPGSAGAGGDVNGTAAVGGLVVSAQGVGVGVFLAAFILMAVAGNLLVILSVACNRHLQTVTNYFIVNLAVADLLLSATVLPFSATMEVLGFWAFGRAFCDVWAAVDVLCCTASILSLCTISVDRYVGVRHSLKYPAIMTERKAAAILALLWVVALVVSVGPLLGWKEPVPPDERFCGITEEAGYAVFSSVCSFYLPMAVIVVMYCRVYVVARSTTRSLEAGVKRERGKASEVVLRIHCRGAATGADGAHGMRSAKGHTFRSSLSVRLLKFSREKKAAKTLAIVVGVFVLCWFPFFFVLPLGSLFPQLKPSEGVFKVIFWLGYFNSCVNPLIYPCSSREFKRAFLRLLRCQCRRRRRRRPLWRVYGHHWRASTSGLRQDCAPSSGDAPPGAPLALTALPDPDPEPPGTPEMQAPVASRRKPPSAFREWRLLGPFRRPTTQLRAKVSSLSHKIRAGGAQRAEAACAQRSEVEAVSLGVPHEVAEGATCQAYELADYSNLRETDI
In words: Adrenergic α1D selectivity binding assay ([3H]-prazosin). The note with it: inhibition of [3H]-prazosin (0.3 nM) binding, HEK293 membranes; read-out: α1 bind pIC50 (converted). The method, boiled down:
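HEK293 membranes with recombinant human α1D receptor incubated 2 h at room temperature with 0.3 nM [3H]-prazosin and compound in 50 mM HEPES, 1 mM EDTA, 0.1% gelatin, pH 7.4; BMY7378 (10 μM) defined non-specific binding. Filter-bound radioactivity counted; pIC50 from four-parameter logistic fit.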

Where a name gives a salt, the structure may show the parent alone.

Consider `O=C(CCNCCc1ccccc1Cl)N(CCNCCc1ccc(O)c2[nH]c(=O)sc12)C1CCCC1` [Example 29, N^3-[2-(2-Chlorophenyl)ethyl]-N-cyclopentyl-N-(2-{[2-(4-hydroxy-2-oxo-2,3-dihydro-1,3-benzothiazol-7-yl)ethyl]amino}ethyl)-β-alaninamide bis-trifluoroacetic acid salt], for which the IC50 was 100 nM.

Regarding `O=C(CCNCCc1cccc(Cl)c1)N(CCNCCc1ccc(O)c2[nH]c(=O)sc12)C1CCCC1` [Example 30, N^3-[2-(3-Chlorophenyl)ethyl]-N-cyclopentyl-N-(2-{[2-(4-hydroxy-2-oxo-2,3-dihydro-1,3-benzothiazol-7-yl)ethyl]amino}ethyl)-β-alaninamide bis-trifluoroacetic acid salt], the IC50 was 200 nM.

With `C[C@H](CNCCC(=O)N(CCNCCc1ccc(O)c2[nH]c(=O)sc12)C1CCCC1)c1ccccc1` [Example 31, N-cyclopentyl-N-(2-{[2-(4-hydroxy-2-oxo-2,3-dihydro-1,3-benzothiazol-7-yl)ethyl]amino}ethyl)-N^3-[(2S)-2-phenylpropyl]-β-alaninamide bis-trifluoroacetic acid salt], the IC50 is 200 nM.

On to `CC(C)(CNCCC(=O)N(CCNCCc1ccc(O)c2[nH]c(=O)sc12)C1CCCC1)c1ccccc1` [Example 32, N-cyclopentyl-N-(2-{[2-(4-hydroxy-2-oxo-2,3-dihydro-1,3-benzothiazol-7-yl)ethyl]amino}ethyl)-N^3-(2-methyl-2-phenylpropyl)-β-alaninamide bis-trifluoroacetic acid salt], for which the IC50 was 398 nM.

Consider `O=C(CCNCCc1ccc(O)cc1)N(CCNCCc1ccc(O)c2[nH]c(=O)sc12)C1CCCCC1` [Example 34, N-Cyclohexyl-N-(2-{[2-(4-hydroxy-2-oxo-2,3-dihydro-1,3-benzothiazol-7-yl)ethyl]amino}ethyl)-N^3-[2-(4-hydroxyphenyl)ethyl]-β-alaninamide bis-trifluoroacetic acid salt], for which the IC50 is 200 nM.

Regarding `O=C(CCNCCc1cccs1)N(CCNCCc1ccc(O)c2[nH]c(=O)sc12)C1CCCCC1` [Example 35, N-Cyclohexyl-N-(2-{[2-(4-hydroxy-2-oxo-2,3-dihydro-1,3-benzothiazol-7-yl)ethyl]amino}ethyl)-N^3-[2-(2-thienyl)ethyl]-β-alaninamide bis-trifluoroacetic acid salt], the IC50 was 158 nM.

Turning to `O=C(CCNCCc1cccc(F)c1)N(CCNCCc1ccc(O)c2[nH]c(=O)sc12)C1CCCCCC1` [Example 36, N-Cycloheptyl-N^3-[2-(3-fluorophenyl)ethyl]-N-(2-{[2-(4-hydroxy-2-oxo-2,3-dihydro-1,3-benzothiazol-7-yl)ethyl]amino}ethyl)-β-alaninamide bis-trifluoroacetic acid salt], the IC50 is 158 nM.

Regarding `O=C(CCNCCc1cccc(O)c1)N(CCNCCc1ccc(O)c2[nH]c(=O)sc12)C1CCCCCC1` [Example 37, N-Cycloheptyl-N-(2-{[2-(4-hydroxy-2-oxo-2,3-dihydro-1,3-benzothiazol-7-yl)ethyl]amino}ethyl)-N^3-[2-(3-hydroxyphenyl)ethyl]-β-alaninamide bis-trifluoroacetic acid salt], the IC50 is 200 nM.

Consider `CC(C)(C)CN(CCNCCc1ccc(O)c2[nH]c(=O)sc12)C(=O)CCNC(C)(C)Cc1ccccc1` [Example 38, N^3-(1,1-Dimethyl-2-phenylethyl)-N-(2,2-dimethylpropyl)-N-(2-{[2-(4-hydroxy-2-oxo-2,3-dihydro-1,3-benzothiazol-7-yl)ethyl]amino}ethyl)-β-alaninamide bis-trifluoroacetic acid salt], for which the IC50 is 794 nM.

On to `O=C(CCNCCc1ccccc1)N(CCNCCc1ccc(O)c2[nH]c(=O)sc12)C1Cc2ccccc2C1` [Example 41, N^1-(2,3-Dihydro-1H-inden-2-yl)-N^1-(2-{[2-(4-hydroxy-2-oxo-2,3-dihydro-1,3-benzothiazol-7-yl)ethyl]amino}ethyl)-N^3-(2-phenylethyl)-β-alaninamide bis-trifluoroacetic acid salt], for which the IC50 is 12.6 nM.

As to `O=C(CCNCCc1cccc(Cl)c1)N(CCNCCc1ccc(O)c2[nH]c(=O)sc12)C1Cc2ccccc2C1` [Example 42, N^3-[2-(3-Chlorophenyl)ethyl]-N^1-(2,3-dihydro-1H-inden-2-yl)-N^1-(2-{[2-(4-hydroxy-2-oxo-2,3-dihydro-1,3-benzothiazol-7-yl)ethyl]amino}ethyl)-β-alaninamide bis-trifluoroacetic acid salt], the IC50 is 63.1 nM.

In the case of `COc1cccc(CCNCCC(=O)N(CCNCCc2ccc(O)c3[nH]c(=O)sc23)CC(C)(C)C)c1` [Example 43, N^1-(2,2-Dimethylpropyl)-N^1-(2-{[2-(4-hydroxy-2-oxo-2,3-dihydro-1,3-benzothiazol-7-yl)ethyl]amino}ethyl)-N^3-[2-(3-methoxyphenyl)ethyl]-β-alaninamide bis-trifluoroacetic acid salt], the IC50 is 158 nM.

Regarding `CC(C)(C)CN(CCNCCc1ccc(O)c2[nH]c(=O)sc12)C(=O)CCNCCc1cccc(F)c1` [Example 44, N^1-(2,2-Dimethylpropyl)-N^3-[2-(3-fluorophenyl)ethyl]-N^1-(2-{[2-(4-hydroxy-2-oxo-2,3-dihydro-1,3-benzothiazol-7-yl)ethyl]amino}ethyl)-β-alaninamide bis-trifluoroacetic acid salt], the IC50 was 316 nM.

Take `CC(C)(CN(CCNCCc1ccc(O)c2[nH]c(=O)sc12)C(=O)CCNCCc1ccccc1)c1ccccc1` [Example 45, N^1-(2-{[2-(4-Hydroxy-2-oxo-2,3-dihydro-1,3-benzothiazol-7-yl)ethyl]amino}ethyl)-N^1-(2-methyl-2-phenylpropyl)-N^3-(2-phenylethyl)-β-alaninamide bis-trifluoroacetic acid salt]: the IC50 was 200 nM.

On to `O=C(CCNCCc1ccccc1Cl)N(CCNCCc1ccc(O)c2[nH]c(=O)sc12)C1CCC(F)(F)CC1` [Example 46, N^3-[2-(2-Chlorophenyl)ethyl]-N^1-(4,4-difluorocyclohexyl)-N^1-(2-{[2-(4-hydroxy-2-oxo-2,3-dihydro-1,3-benzothiazol-7-yl)ethyl]amino}ethyl)-β-alaninamide bis-trifluoroacetic acid salt], for which the IC50 was 158 nM.

As for `O=C(CCNCCc1cccc(Cl)c1)N(CCNCCc1ccc(O)c2[nH]c(=O)sc12)C1CCC(F)(F)CC1` [Example 47, N^3-[2-(3-Chlorophenyl)ethyl]-N^1-(4,4-difluorocyclohexyl)-N^1-(2-{[2-(4-hydroxy-2-oxo-2,3-dihydro-1,3-benzothiazol-7-yl)ethyl]amino}ethyl)-β-alaninamide bis-trifluoroacetic acid salt], the IC50 was 501 nM.

Consider `O=C(CCNCCc1ccc(Cl)cc1)N(CCNCCc1ccc(O)c2[nH]c(=O)sc12)C1CCC(F)(F)CC1` [Example 48, N^3-[2-(4-Chlorophenyl)ethyl]-N^1-(4,4-difluorocyclohexyl)-N^1-(2-{[2-(4-hydroxy-2-oxo-2,3-dihydro-1,3-benzothiazol-7-yl)ethyl]amino}ethyl)-β-alaninamide bis-trifluoroacetic acid salt], for which the IC50 was 631 nM.

For `O=C(CCNCCc1cccc(Cl)c1)N(CCNCCc1ccc(O)c2[nH]c(=O)sc12)C1CCCCCC1` [Example 50, N^3-[2-(3-Chlorophenyl)ethyl]-N^1-cycloheptyl-N^1-(2-{[2-(4-hydroxy-2-oxo-2,3-dihydro-1,3-benzothiazol-7-yl)ethyl]amino}ethyl)-β-alaninamide bis-trifluoroacetic acid salt], the IC50 is 79.4 nM.

For the molecule `O=C(CCNCCc1ccc(Cl)cc1)N(CCNCCc1ccc(O)c2[nH]c(=O)sc12)C1CCCCCC1` [Example 51, N^3-[2-(4-Chlorophenyl)ethyl]-N^1-cycloheptyl-N^1-(2-{[2-(4-hydroxy-2-oxo-2,3-dihydro-1,3-benzothiazol-7-yl)ethyl]amino}ethyl)-β-alaninamide bis-trifluoroacetic acid salt], the IC50 is 316 nM.

Consider `O=C(CCNCCc1cccs1)N(CCNCCc1ccc(O)c2[nH]c(=O)sc12)C1CCCCCC1` [Example 52, N^1-Cycloheptyl-N^1-(2-{[2-(4-hydroxy-2-oxo-2,3-dihydro-1,3-benzothiazol-7-yl)ethyl]amino}ethyl)-N^3-[2-(2-thienyl)ethyl]-β-alaninamide bis-trifluoroacetic acid salt], for which the IC50 was 100 nM.

For `O=C(CCNCCc1ccc(F)c(F)c1)N(CCNCCc1ccc(O)c2[nH]c(=O)sc12)C1CCCCCC1` [Example 53, N^1-Cycloheptyl-N^1-[2-(3,4-difluorophenyl)ethyl]-N^1-(2-{[2-(4-hydroxy-2-oxo-2,3-dihydro-1,3-benzothiazol-7-yl)ethyl]amino}ethyl)-β-alaninamide bis-trifluoroacetic acid salt], the IC50 is 126 nM.

Consider `O=C(CCNCCc1cccc(OC(F)F)c1)N(CCNCCc1ccc(O)c2[nH]c(=O)sc12)C1CCCCCC1` [Example 54, N-Cycloheptyl-N^3-{2-[3-(difluoromethoxy)phenyl]ethyl}-N^1-(2-{[2-(4-hydroxy-2-oxo-2,3-dihydro-1,3-benzothiazol-7-yl)ethyl]amino}ethyl)-β-alaninamide bis-trifluoroacetic acid salt], for which the IC50 is 316 nM.

The values are drawn from patent publication US20100022491A1, “4-HYDROXY-2-OXO-2,3-DIHYDRO-1,3-BENZOTHIAZOL-7YL COMPOUNDS FOR MODULATION OF B2-ADRENORECEPTOR ACTIVITY” (ASTRAZENECA AB, priority 2006, published 2010).
